Measurements reported in the kinase profiling compilation of Christmann-Franck et al. (2016).

Tests used:
Test in all cases: KINOMEscan competition binding
Conditions in all cases: compound 1.0 µM
EPHB6 (human) = EPHB6 (human) (UniProt O15197)
DDR2 (human) = DDR2 (human) (UniProt Q16832)
MAP2K5 (human) = MAP2K5 (human) (UniProt Q13163)
ACVR1 (human) = ACVR1 (human) (UniProt Q04771)
STK4 (human) = STK4 (human) (UniProt Q13043)
LCK (human) = LCK (human) (UniProt P06239)
CAMK4 (human) = CAMK4 (human) (UniProt Q16566)
ICK (human) = ICK (human) (UniProt Q9UPZ9)
PIK3CB (human) = PIK3CB (human) (UniProt P42338)
STK24 (human) = STK24 (human) (UniProt Q9Y6E0)
HIPK1 (human) = HIPK1 (human) (UniProt Q86Z02)
DCLK3 (human) = DCLK3 (human) (UniProt Q9C098)
TAOK1 (human) = TAOK1 (human) (UniProt Q7L7X3)
MAP2K6 (human) = MAP2K6 (human) (UniProt P52564)
CAMKK2 (human) = CAMKK2 (human) (UniProt Q96RR4)
NIM1 (human) = NIM1 (human) (UniProt Q8IY84)
SGK3 (human) = SGK3 (human) (UniProt Q96BR1)
CSNK1D (human) = CSNK1D (human) (UniProt P48730)
MET (human) = MET (human) (UniProt P08581)
CSNK1G2 (human) = CSNK1G2 (human) (UniProt P78368)
MAP3K1 (human) = MAP3K1 (human) (UniProt Q13233)
IGF1R (human) = IGF1R (human) (UniProt P08069)
NEK2 (human) = NEK2 (human) (UniProt P51955)
ANKK1 (human) = ANKK1 (human) (UniProt Q8NFD2)
[1] = system: EGFR (human), P00533 [L861Q]
CSNK1G1 (human) = CSNK1G1 (human) (UniProt Q9HCP0)
CDK19 (human) = CDK19 (human) (UniProt Q9BWU1)
CDK14 (human) = CDK14 (human) (UniProt O94921)
MAP4K2 (human) = MAP4K2 (human) (UniProt Q12851)
FLT3 (human) = FLT3 (human) (UniProt P36888)
TRPM6 (human) = TRPM6 (human) (UniProt Q9BX84)
WEE1 (human) = WEE1 (human) (UniProt P30291)
PIM2 (human) = PIM2 (human) (UniProt Q9P1W9)
STK3 (human) = STK3 (human) (UniProt Q13188)
RPS6KA2 KD2 (human) = RPS6KA2 KD2 (human) (UniProt Q15349)
MAPK9 (human) = MAPK9 (human) (UniProt P45984)
PIM1 (human) = PIM1 (human) (UniProt P11309)
NLK (human) = NLK (human) (UniProt Q9UBE8)
MAP2K2 (human) = MAP2K2 (human) (UniProt P36507)
[2] = system: EGFR (human), P00533 [752-759 del]
MAP3K4 (human) = MAP3K4 (human) (UniProt Q9Y6R4)
FLT4 (human) = FLT4 (human) (UniProt P35916)
ZAP70 (human) = ZAP70 (human) (UniProt P43403)

CAMKK2 (human), sequence (Q96RR4 whole entry, looked up): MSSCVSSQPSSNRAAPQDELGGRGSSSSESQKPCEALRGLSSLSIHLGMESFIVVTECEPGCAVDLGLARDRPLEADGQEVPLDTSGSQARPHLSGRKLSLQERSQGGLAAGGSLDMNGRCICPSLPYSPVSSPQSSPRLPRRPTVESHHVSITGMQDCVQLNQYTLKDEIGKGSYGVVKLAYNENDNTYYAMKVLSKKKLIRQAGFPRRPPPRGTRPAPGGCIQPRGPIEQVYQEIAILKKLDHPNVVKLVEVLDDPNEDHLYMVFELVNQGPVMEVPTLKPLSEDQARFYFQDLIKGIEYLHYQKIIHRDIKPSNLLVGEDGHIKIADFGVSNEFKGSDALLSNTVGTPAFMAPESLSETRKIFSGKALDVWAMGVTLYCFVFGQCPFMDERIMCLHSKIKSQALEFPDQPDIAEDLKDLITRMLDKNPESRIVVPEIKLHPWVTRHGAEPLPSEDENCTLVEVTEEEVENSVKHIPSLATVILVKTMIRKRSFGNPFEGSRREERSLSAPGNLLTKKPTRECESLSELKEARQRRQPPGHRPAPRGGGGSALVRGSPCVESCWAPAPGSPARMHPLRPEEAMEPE
LCK (human), sequence (P06239 whole entry, looked up): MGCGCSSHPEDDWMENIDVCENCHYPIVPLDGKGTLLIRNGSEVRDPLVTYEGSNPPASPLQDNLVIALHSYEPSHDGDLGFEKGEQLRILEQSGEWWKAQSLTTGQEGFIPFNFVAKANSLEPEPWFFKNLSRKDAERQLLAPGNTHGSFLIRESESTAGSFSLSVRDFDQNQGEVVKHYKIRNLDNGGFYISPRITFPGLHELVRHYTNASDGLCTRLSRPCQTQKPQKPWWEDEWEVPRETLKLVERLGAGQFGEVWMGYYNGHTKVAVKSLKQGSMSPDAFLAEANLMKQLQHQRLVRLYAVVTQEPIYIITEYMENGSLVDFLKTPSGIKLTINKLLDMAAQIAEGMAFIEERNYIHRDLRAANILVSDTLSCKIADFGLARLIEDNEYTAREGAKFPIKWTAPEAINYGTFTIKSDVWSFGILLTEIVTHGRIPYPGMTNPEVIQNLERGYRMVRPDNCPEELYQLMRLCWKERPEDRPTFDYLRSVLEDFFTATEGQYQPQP
MAP2K6 (human), sequence (P52564 whole entry, looked up): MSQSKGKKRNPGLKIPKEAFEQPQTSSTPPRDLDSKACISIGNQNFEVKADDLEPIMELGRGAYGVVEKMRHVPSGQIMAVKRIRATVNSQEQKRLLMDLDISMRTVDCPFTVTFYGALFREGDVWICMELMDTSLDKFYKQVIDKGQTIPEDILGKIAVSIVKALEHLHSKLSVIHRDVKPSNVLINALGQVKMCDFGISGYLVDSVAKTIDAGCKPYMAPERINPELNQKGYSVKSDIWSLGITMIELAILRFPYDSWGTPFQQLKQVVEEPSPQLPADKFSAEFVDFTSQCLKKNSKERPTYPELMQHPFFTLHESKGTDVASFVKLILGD
PIK3CB (human), sequence (P42338 whole entry, looked up): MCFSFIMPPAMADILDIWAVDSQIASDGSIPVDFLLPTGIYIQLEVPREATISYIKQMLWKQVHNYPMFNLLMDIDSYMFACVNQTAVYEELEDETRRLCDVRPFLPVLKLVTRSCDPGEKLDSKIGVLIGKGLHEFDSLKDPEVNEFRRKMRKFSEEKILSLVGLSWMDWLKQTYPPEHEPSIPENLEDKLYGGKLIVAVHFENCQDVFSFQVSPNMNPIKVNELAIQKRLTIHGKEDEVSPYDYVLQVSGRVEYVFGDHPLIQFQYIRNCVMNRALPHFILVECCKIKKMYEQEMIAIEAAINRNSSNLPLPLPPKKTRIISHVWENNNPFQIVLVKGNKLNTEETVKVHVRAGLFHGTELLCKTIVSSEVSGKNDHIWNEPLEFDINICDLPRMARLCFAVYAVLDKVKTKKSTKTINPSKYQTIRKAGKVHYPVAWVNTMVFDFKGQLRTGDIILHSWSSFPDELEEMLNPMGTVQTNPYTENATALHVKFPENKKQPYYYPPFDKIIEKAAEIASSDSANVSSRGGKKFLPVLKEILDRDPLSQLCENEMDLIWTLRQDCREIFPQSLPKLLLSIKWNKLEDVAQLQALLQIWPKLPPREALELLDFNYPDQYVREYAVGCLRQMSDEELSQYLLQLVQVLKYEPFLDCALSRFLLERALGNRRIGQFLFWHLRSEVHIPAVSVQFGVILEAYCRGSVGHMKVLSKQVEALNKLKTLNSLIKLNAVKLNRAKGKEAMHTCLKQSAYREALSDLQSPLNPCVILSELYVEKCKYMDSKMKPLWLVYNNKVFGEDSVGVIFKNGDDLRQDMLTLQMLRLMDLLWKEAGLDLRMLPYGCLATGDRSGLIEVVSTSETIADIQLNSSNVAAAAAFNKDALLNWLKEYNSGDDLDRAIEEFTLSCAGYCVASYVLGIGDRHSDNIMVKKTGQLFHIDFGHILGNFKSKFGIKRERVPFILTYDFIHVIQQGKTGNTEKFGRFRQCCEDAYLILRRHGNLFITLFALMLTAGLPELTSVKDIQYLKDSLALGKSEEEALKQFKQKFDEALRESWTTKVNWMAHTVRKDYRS
NLK (human), sequence (Q9UBE8 whole entry, looked up): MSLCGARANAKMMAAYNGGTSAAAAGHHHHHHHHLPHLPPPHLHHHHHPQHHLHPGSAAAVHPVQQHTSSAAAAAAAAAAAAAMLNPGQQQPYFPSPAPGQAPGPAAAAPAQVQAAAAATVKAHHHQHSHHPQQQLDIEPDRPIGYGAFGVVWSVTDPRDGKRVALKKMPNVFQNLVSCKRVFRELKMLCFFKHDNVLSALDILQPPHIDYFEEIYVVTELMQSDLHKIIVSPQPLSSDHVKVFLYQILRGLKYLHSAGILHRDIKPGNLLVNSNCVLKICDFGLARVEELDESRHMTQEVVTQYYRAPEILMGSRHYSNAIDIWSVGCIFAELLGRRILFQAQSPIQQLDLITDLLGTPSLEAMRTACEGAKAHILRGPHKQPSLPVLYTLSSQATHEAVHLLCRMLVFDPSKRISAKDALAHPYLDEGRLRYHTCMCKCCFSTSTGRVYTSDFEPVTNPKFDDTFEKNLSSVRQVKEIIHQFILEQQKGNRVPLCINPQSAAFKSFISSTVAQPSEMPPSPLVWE
MET (human), sequence (P08581 whole entry, looked up): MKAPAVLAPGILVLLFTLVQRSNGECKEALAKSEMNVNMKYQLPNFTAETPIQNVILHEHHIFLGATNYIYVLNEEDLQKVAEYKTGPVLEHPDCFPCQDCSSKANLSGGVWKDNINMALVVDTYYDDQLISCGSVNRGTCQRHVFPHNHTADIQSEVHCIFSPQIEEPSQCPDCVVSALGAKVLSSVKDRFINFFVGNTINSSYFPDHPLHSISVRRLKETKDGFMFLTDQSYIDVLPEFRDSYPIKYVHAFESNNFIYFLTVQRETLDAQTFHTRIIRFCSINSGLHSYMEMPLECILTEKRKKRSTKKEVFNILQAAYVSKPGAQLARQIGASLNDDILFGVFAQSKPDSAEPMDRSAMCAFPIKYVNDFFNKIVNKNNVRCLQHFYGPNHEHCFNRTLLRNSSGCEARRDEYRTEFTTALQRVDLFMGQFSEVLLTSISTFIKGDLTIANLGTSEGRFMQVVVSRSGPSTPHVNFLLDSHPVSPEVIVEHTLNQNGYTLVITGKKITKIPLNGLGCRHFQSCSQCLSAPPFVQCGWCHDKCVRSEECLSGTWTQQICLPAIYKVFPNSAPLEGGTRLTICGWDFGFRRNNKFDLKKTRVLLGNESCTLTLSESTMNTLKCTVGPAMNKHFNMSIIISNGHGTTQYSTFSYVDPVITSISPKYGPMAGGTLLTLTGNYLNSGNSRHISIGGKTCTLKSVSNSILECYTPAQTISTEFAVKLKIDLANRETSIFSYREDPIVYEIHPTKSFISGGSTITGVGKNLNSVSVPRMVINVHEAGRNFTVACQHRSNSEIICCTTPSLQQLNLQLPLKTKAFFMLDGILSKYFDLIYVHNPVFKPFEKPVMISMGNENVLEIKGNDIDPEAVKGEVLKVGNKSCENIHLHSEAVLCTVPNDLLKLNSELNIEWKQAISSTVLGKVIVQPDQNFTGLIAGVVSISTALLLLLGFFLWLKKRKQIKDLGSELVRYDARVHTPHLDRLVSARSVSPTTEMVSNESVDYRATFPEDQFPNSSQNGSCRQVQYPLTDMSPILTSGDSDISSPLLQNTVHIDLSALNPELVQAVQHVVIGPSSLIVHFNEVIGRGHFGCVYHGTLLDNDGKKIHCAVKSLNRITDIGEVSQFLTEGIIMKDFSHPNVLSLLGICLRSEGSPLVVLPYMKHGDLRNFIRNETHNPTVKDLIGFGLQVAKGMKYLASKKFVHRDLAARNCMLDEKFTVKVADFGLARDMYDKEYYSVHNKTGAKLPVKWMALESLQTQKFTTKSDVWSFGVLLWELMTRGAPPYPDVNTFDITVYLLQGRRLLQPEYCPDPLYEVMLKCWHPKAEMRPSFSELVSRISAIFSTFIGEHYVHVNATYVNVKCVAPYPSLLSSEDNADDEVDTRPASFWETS
CDK14 (human), sequence (O94921 whole entry, looked up): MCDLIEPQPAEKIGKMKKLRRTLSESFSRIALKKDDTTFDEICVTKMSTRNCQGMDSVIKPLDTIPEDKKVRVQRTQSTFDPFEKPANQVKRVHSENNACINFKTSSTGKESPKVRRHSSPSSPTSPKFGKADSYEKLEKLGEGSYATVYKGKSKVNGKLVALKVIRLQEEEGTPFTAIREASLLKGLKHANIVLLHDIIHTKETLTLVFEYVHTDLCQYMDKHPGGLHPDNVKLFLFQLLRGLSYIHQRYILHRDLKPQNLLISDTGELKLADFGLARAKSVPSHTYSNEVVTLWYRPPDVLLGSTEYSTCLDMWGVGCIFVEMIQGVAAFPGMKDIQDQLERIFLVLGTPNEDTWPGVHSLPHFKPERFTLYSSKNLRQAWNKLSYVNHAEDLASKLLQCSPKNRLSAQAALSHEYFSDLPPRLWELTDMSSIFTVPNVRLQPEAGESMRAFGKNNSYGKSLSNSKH

COCCNCCCn1c(C(=O)CF)c(-c2ccc(C)cc2)c2c(N)ncnc21
kinase still bound, per cent of control (EPHB6 (human)): 100%
kinase still bound, per cent of control (DDR2 (human)): 99%
kinase still bound, per cent of control (MAP2K5 (human)): 46%
kinase still bound, per cent of control (ACVR1 (human)): 100%
kinase still bound, per cent of control (STK4 (human)): 94%
kinase still bound, per cent of control (LCK (human)): 65%
kinase still bound, per cent of control (CAMK4 (human)): 100%
kinase still bound, per cent of control (ICK (human)): 100%
kinase still bound, per cent of control (PIK3CB (human)): 89%
kinase still bound, per cent of control (STK24 (human)): 78%
kinase still bound, per cent of control (HIPK1 (human)): 96%
kinase still bound, per cent of control (DCLK3 (human)): 100%
kinase still bound, per cent of control (TAOK1 (human)): 100%
kinase still bound, per cent of control (MAP2K6 (human)): 97%
kinase still bound, per cent of control (CAMKK2 (human)): 100%
kinase still bound, per cent of control (NIM1 (human)): 100%
kinase still bound, per cent of control (SGK3 (human)): 79%
kinase still bound, per cent of control (CSNK1D (human)): 82%
kinase still bound, per cent of control (MET (human)): 97%
kinase still bound, per cent of control (CSNK1G2 (human)): 100%
kinase still bound, per cent of control (MAP3K1 (human)): 100%
kinase still bound, per cent of control (IGF1R (human)): 100%
kinase still bound, per cent of control (NEK2 (human)): 98%
kinase still bound, per cent of control (ANKK1 (human)): 100%
kinase still bound, per cent of control [1]: 84%
kinase still bound, per cent of control (CSNK1G1 (human)): 91%
kinase still bound, per cent of control (CDK19 (human)): 98%
kinase still bound, per cent of control (CDK14 (human)): 100%
kinase still bound, per cent of control (MAP4K2 (human)): 94%
kinase still bound, per cent of control (FLT3 (human)): 71%
kinase still bound, per cent of control (TRPM6 (human)): 81%
kinase still bound, per cent of control (WEE1 (human)): 94%
kinase still bound, per cent of control (PIM2 (human)): 99%
kinase still bound, per cent of control (STK3 (human)): 95%
kinase still bound, per cent of control (RPS6KA2 KD2 (human)): 95%
kinase still bound, per cent of control (MAPK9 (human)): 94%
kinase still bound, per cent of control (PIM1 (human)): 100%
kinase still bound, per cent of control (NLK (human)): 96%
kinase still bound, per cent of control (MAP2K2 (human)): 100%
kinase still bound, per cent of control [2]: 90%
kinase still bound, per cent of control (MAP3K4 (human)): 100%
kinase still bound, per cent of control (FLT4 (human)): 98%
kinase still bound, per cent of control (ZAP70 (human)): 85%
